Assay results as given in the supplement of paper PMC10307832.

Columns and labels:
Experiment in all cases: relative viability (nuclei count vs DMSO), 5 days (fraction); higher = more cells survive
NCI-H1355 = test system: NCI-H1355
Procedure, shortened: (§1)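 Lung cancer cell lines were pin-tool dosed in 1536-well plates on the day after seeding, with either a lone drug or a fixed anchor-drug dose plus five library-drug doses (not always all listed) in √10 steps. Nuclei were counted on 4× images after 5 days. Relative viability is the ratio of treated-well to vehicle-well nuclei counts, with each value a median of duplicate plates.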

NCI-H1703 = test system: NCI-H1703
Procedure, shortened: as §1

NCI-H520 = test system: NCI-H520
Procedure, shortened: as §1

LC-2-ad = test system: LC-2-ad
Procedure, shortened: as §1

NCI-H1299 = test system: NCI-H1299
Procedure, shortened: as §1

EBC-1 = test system: EBC-1
Procedure, shortened: as §1

LCLC-97TM1 = test system: LCLC-97TM1
Procedure, shortened: as §1

NCI-H23 = test system: NCI-H23
Procedure, shortened: as §1

IA-LM = test system: IA-LM
Procedure, shortened: as §1

NCI-H2347 = test system: NCI-H2347
Procedure, shortened: as §1

A549 = test system: A549
Procedure, shortened: as §1

PC-3 [JPC-3] = test system: PC-3 [JPC-3]
Procedure, shortened: as §1

Calu-6 = test system: Calu-6
Procedure, shortened: as §1

NCI-H1648 = test system: NCI-H1648
Procedure, shortened: as §1

## COCC1(CO)C(=O)C2CCN1CC2 (stereo not given) [PRIMA-1MET] + C[C@@H](Oc1cc(-c2cnn(C3CCNCC3)c2)cnc1N)c1c(Cl)ccc(F)c1Cl [Crizotinib] (partner 1 µM)
NCI-H1355; first compound 0.2 µM
  relative viability: 1.2
NCI-H1355; first compound 0.6325 µM
  relative viability: 1.02
NCI-H1355; first compound 2 µM
  relative viability: 0.897
NCI-H1355; first compound 6.325 µM
  relative viability: 1.05
NCI-H1355; first compound 20 µM
  relative viability: 1.03
NCI-H1703; first compound 0.2 µM
  relative viability: 0.749
NCI-H1703; first compound 0.6325 µM
  relative viability: 0.861
NCI-H1703; first compound 2 µM
  relative viability: 0.784
NCI-H1703; first compound 6.325 µM
  relative viability: 0.377
NCI-H1703; first compound 20 µM
  relative viability: 0.0587
NCI-H520; first compound 0.2 µM
  relative viability: 0.639
NCI-H520; first compound 0.6325 µM
  relative viability: 0.841
NCI-H520; first compound 6.325 µM
  relative viability: 0.659
NCI-H520; first compound 20 µM
  relative viability: 0.135
LC-2-ad; first compound 0.2 µM
  relative viability: 0.484
LC-2-ad; first compound 0.6325 µM
  relative viability: 0.434
LC-2-ad; first compound 2 µM
  relative viability: 0.398
LC-2-ad; first compound 6.325 µM
  relative viability: 0.39
LC-2-ad; first compound 20 µM
  relative viability: 0.382
NCI-H1299; first compound 0.2 µM
  relative viability: 0.988
NCI-H1299; first compound 0.6325 µM
  relative viability: 0.728
NCI-H1299; first compound 2 µM
  relative viability: 1
NCI-H1299; first compound 6.325 µM
  relative viability: 0.978
NCI-H1299; first compound 20 µM
  relative viability: 0.955
EBC-1; first compound 0.2 µM
  relative viability: 0.19
EBC-1; first compound 0.6325 µM
  relative viability: 0.174
EBC-1; first compound 2 µM
  relative viability: 0.197
EBC-1; first compound 6.325 µM
  relative viability: 0.192
EBC-1; first compound 20 µM
  relative viability: 0.212
LCLC-97TM1; first compound 0.2 µM
  relative viability: 0.494
LCLC-97TM1; first compound 2 µM
  relative viability: 0.378
LCLC-97TM1; first compound 6.325 µM
  relative viability: 0.234
LCLC-97TM1; first compound 20 µM
  relative viability: 0.0997
NCI-H23; first compound 0.2 µM
  relative viability: 0.599
NCI-H23; first compound 0.6325 µM
  relative viability: 0.471
NCI-H23; first compound 2 µM
  relative viability: 0.48
NCI-H23; first compound 6.325 µM
  relative viability: 0.406
NCI-H23; first compound 20 µM
  relative viability: 0.104
IA-LM; first compound 0.2 µM
  relative viability: 0.856
IA-LM; first compound 0.6325 µM
  relative viability: 0.868
IA-LM; first compound 2 µM
  relative viability: 0.955
IA-LM; first compound 6.325 µM
  relative viability: 0.851
IA-LM; first compound 20 µM
  relative viability: 0.838
NCI-H2347; first compound 0.2 µM
  relative viability: 0.705
NCI-H2347; first compound 0.6325 µM
  relative viability: 0.667
NCI-H2347; first compound 2 µM
  relative viability: 0.295
NCI-H2347; first compound 6.325 µM
  relative viability: 0.771
NCI-H2347; first compound 20 µM
  relative viability: 0.682
A549; first compound 0.2 µM
  relative viability: 0.961
A549; first compound 0.6325 µM
  relative viability: 0.577
A549; first compound 2 µM
  relative viability: 0.813
A549; first compound 6.325 µM
  relative viability: 0.817
A549; first compound 20 µM
  relative viability: 0.746
PC-3 [JPC-3]; first compound 0.2 µM
  relative viability: 0.995
PC-3 [JPC-3]; first compound 0.6325 µM
  relative viability: 0.911
PC-3 [JPC-3]; first compound 2 µM
  relative viability: 0.966
PC-3 [JPC-3]; first compound 6.325 µM
  relative viability: 1.07
PC-3 [JPC-3]; first compound 20 µM
  relative viability: 0.951
Calu-6; first compound 0.2 µM
  relative viability: 0.795
Calu-6; first compound 0.6325 µM
  relative viability: 0.901
Calu-6; first compound 2 µM
  relative viability: 0.825
Calu-6; first compound 6.325 µM
  relative viability: 0.886
Calu-6; first compound 20 µM
  relative viability: 0.627

## COCC1(CO)C(=O)C2CCN1CC2 (stereo not given) [PRIMA-1MET] + CC(=O)c1c(C)c2cnc(Nc3ccc(N4CCNCC4)cn3)nc2n(C2CCCC2)c1=O [Palbociclib] (partner 0.5 µM)
NCI-H1355; first compound 0.2 µM
  relative viability: 0.465
NCI-H1355; first compound 0.6325 µM
  relative viability: 0.393
NCI-H1355; first compound 2 µM
  relative viability: 0.328
NCI-H1355; first compound 6.325 µM
  relative viability: 0.436
NCI-H1355; first compound 20 µM
  relative viability: 0.414
NCI-H520; first compound 0.2 µM
  relative viability: 0.249
NCI-H520; first compound 2 µM
  relative viability: 0.202
NCI-H520; first compound 6.325 µM
  relative viability: 0.216
NCI-H520; first compound 20 µM
  relative viability: 0.142
LC-2-ad; first compound 0.2 µM
  relative viability: 0.496
LC-2-ad; first compound 0.6325 µM
  relative viability: 0.484
LC-2-ad; first compound 2 µM
  relative viability: 0.525
LC-2-ad; first compound 6.325 µM
  relative viability: 0.457
LC-2-ad; first compound 20 µM
  relative viability: 0.468
LCLC-97TM1; first compound 0.2 µM
  relative viability: 0.215
LCLC-97TM1; first compound 0.6325 µM
  relative viability: 0.192
LCLC-97TM1; first compound 2 µM
  relative viability: 0.193
LCLC-97TM1; first compound 6.325 µM
  relative viability: 0.264
LCLC-97TM1; first compound 20 µM
  relative viability: 0.206
NCI-H23; first compound 0.2 µM
  relative viability: 0.469
NCI-H23; first compound 0.6325 µM
  relative viability: 0.351
NCI-H23; first compound 2 µM
  relative viability: 0.416
NCI-H23; first compound 6.325 µM
  relative viability: 0.538
NCI-H23; first compound 20 µM
  relative viability: 0.121
NCI-H2347; first compound 0.2 µM
  relative viability: 0.451
NCI-H2347; first compound 0.6325 µM
  relative viability: 0.317
NCI-H2347; first compound 2 µM
  relative viability: 0.365
NCI-H2347; first compound 6.325 µM
  relative viability: 0.42
NCI-H2347; first compound 20 µM
  relative viability: 0.313
PC-3 [JPC-3]; first compound 0.2 µM
  relative viability: 0.597
PC-3 [JPC-3]; first compound 0.6325 µM
  relative viability: 0.608
PC-3 [JPC-3]; first compound 2 µM
  relative viability: 0.573
PC-3 [JPC-3]; first compound 6.325 µM
  relative viability: 0.574
PC-3 [JPC-3]; first compound 20 µM
  relative viability: 0.521
NCI-H1648; first compound 0.2 µM
  relative viability: 0.251
NCI-H1648; first compound 2 µM
  relative viability: 0.283
NCI-H1648; first compound 20 µM
  relative viability: 0.283
